Source: US4985449A, “N-benzoyl-N-pyridyloxy phenyl urea compounds and pesticide compositions containing them” (Ishihara Sangyo Kaisha Ltd., priority 1986, dated 1991)
Each block holds one molecule with its values, some of them ahead of it.

What was measured:
[1] = test system: diamondback moth (Plutella xylostella); assay: Insecticidal test against diamondback moth (Test Example 2); type: in vivo; settings: 168 h, second or third instar larvae, 7th day after release, 26° C.
Source text: (§1) Each formulation containing an active ingredient was dispersed in water to obtain a dispersion of each active ingredient having a concentration of 10 ppm. Leaves of cabbage were dipped in the respective dispersions for about 10 seconds, and then dried in air. A sheet of moistened filter paper was placed in a Petri dish having a diameter of 9 cm, and the dried leaves of cabbage were put on the filter paper. Larvae of diamondback moth (Plutella xylostella) in second or third instar were released on the leaves, and the Petri dishes were covered and kept in a constant temperature chamber with lightening at a temperature of 26° C. On the 7th day after release, dead insects were counted, and the mortality was calculated by the following equation: […]

[2] = test system: common cutworm (Spodoptera litura); assay: Insecticidal test against common cutworm (Test Example 3); type: in vivo; settings: 168 h, second or third instar larvae, 7th day after release
Source text: as §1
(§2) The tests were conducted in the same manner as in Test Example 2 except that larvae of common cutworm (Spodoptera litura) in second or third instar were used instead of larvae of the diamondback moth in second or third instar, and the concentration of the active ingredient was changed from 10 ppm to 800 ppm or 1 ppm.

[3] = test system: Common cutworm; assay: Insecticidal test (C-value) against common cutworm (Test Example 7-I); type: in vivo; settings: Spodoptera litura, 168 h; minimum concentration at which no less than 90% of insects are killed
Source text: as §1, §2
(§3) In the same manner as in Test Examples 2 and 3, insecticidal tests against diamondback moth and common cutworm were conducted with respect to each compound, and the minimum concentrations at which no less than 90% of insects are killed (hereinafter referred to as C-value), were obtained.

[4] = test system: Diamondback moth; assay: Insecticidal test (C-value) against diamondback moth (Test Example 7-I); type: in vivo; settings: Plutella xylostella, 168 h; minimum concentration at which no less than 90% of insects are killed
Source text: as §1, §3

[5] = test system: Daphnia magna Straus; assay: Acute Immobilisation Test against Daphnia magna Straus (Test Example 7-II); type: in vivo; settings: first instar larvae; up to 48 hours; 23±1° C.; OECD guideline; Probit method
Protocol: An acetone solution of each compound was dispersed in water to obtain test solutions having various concentrations of the active ingredient. 250 ml of each test solution was introduced into a 430 ml glass beaker. Into each beaker, 10 first instar larvae born within 24 hours were released and kept at the solution temperature of 23±1° C. The immobilisation up to 48 hours after the release of the larvae was investigated in accordance with the OECD test guideline. The test was repeated 2-3 times in two series for each concentration. The 50% immobilisation concentration (EC50, ppb) was obtained by Probit method.

[6] = Residual test in soil (Test Example 7-III); settings: upland volcanic ash soil, irrigated condition; 5 ppm; 20 days; 30° C.
Protocol: Upland soil (volcanic ash soil) was screened through a sieve with a mesh size of 5 mm, and 20 g by dry weight basis of the soil was put into a 100 ml Erlenmeyer flask. Then, distilled water was introduced to simulate an irrigated condition with a water depth of 1 cm. An aluminum foil was put on the top of the flask, and the flask was left to stand still for 1 week in an incubator (dark place) at 30° C.
0.5 ml of a 200 ppm dispersion in acetone of each compound (100 μg) was added to the flask by means of a pipet (to a concentration of 5 ppm). The flask was closed and thoroughly shaked, and the soil attached to the closure was washed into the flask with a small amount of water. Then, the top of the flask was covered with an aluminum foil, and the flask was subjected to incubation in a growth cabinet (30° C., humidity: 60%, continuously lighted with a fluorescent lamp with 9,000 lux). 20 Days later, the total 20 g of the soil was subjected to analysis, and the remaining amount of the compound was measured.

[7] = test system: house fly (Musca domestica); assay: Egg hatch inhibition test by the treatment of adults of house fly (Test Example 6); type: in vivo; settings: po, 100 μg/g in diet of adult females for 3 days, unhatched eggs assessed one day after collection, read-out: ratio of the egg hatch inhibition (REHI)
Protocol: Sugar and skim milk were mixed in a weight ratio of 1:1, and 2 g of the mixture was put into a Petri dish having a diameter of 5.5 cm. 0.5 ml of an acetone solution containing the active ingredient was added to the mixture in the Petri dish. After acetone evaporated, the treated mixture was thoroughly mixed, and the concentration of the active ingredient was adjusted to 100 μg/g. Twenty non-mating females of house fly (Musca domestica) were allowed to feed on the poisoned diet (the treated mixture) in a cage. After 3 days, the diet was changed to the untreated mixture, then 20 non-mating males were released into the cage for mating. On the 3rd day after release, a cup of the medium for rearing fly larvae was set in the cage for oviposition for 7 hours. The egg laid on the medium were collected and kept on the moistened filter paper in a Petri dish. One day later, unhatched eggs were assessed and the ratio of the egg hatch inhibition (REHI) was calculated by the following equation: [formula]

[8] = test system: two-spotted spider mite (Tetranychus urticae); assay: Miticidal test against two-spotted spider mite (Test Example 1); type: in vivo; settings: 120 h, 200 ppm, 5th day after treatment, larvae and nimphs on French bean, 26° C.
Source text: Each formulation containing an active ingredient was dispersed in water to obtain a dispersion of each active ingredient having a concentration of 800 or 200 ppm. Each of French bean seedlings with only on primary leaf left, was transplanted to a cup having a diameter of 7 cm and a height of 4 cm. About 30 larvae and […] of two-spotted spider mite (Tetranychus urticae) were infested to the leaf of the French bean. Then, the French bean was dipped in the dispersion having the concentration of 800 ppm or 200 ppm for about 10 seconds, then dried in air and kept in a constant temperature chamber with lightening at 26° C. On the 5th day after the treatment, dead mites were counted, and the mortality was calculated by the following equation: [formula]

SMILES: Cc1cc(-c2ccc(Br)cc2)ccc1N(C)C(=O)NC(=O)c1c(F)cccc1F [compound 109]
mortality at 10 ppm [1]: 100% | mortality at 1 ppm [2]: 100% | mortality at 800 ppm [2]: 100%

SMILES: CN(C(=O)NC(=O)c1c(F)cccc1F)c1ccc(N(C)c2ncc(C(F)(F)F)cc2Cl)cc1 [compound 125]
mortality at 10 ppm [1]: 100% | mortality at 1 ppm [2]: 100% | mortality at 800 ppm [2]: 100%

Remaining rate in the soil [6]: 91%
SMILES: O=C(NC(=O)c1c(F)cccc1F)Nc1ccc(Oc2ccc(C(F)(F)F)cc2Cl)c(F)c1 [drawing 47 (R=H), reference compound]
minimal effective concentration [3]: 0.04 µg/mL | minimal effective concentration [4]: 0.08 µg/mL | EC50 of Daphnia magna Straus (50% immobilisation concentration) [5]: < 0.4 ppb

SMILES: Cc1ccc(N(C)C(=O)NC(=O)c2c(F)cccc2F)cc1Oc1ccc(C(F)(F)F)cc1Cl [compound 115]
mortality at 1 ppm [2]: 100%

SMILES: CN(C(=O)NC(=O)c1c(F)cccc1F)c1ccc(Oc2ccc(C(F)(F)F)cc2Cl)c(F)c1F [Compound No. 5, N-[4-(2-chloro-4-trifluoromethylphenoxy)-2,3-difluorophenyl]-N'-(2,6-difluorobenzoyl)-N-methylurea]
inhibition at 100 µg/g [7]: 100%

SMILES: CN(C(=O)NC(=O)c1c(F)cccc1F)c1ccc(Oc2ccc([N+](=O)[O-])cc2Cl)cc1 [compound 62]
mortality at 1 ppm [2]: 100%

SMILES: CN(C(=O)NC(=O)c1c(F)cccc1F)c1ccc(Oc2ccc(S(=O)(=O)C(F)(F)F)cc2)cc1 [compound 41]
mortality at 10 ppm [1]: 100%

SMILES: CN(C(=O)NC(=O)c1c(F)cccc1F)c1ccc(Oc2ncc(C(F)(F)F)cc2Cl)c(Cl)c1 [compound 15, N-[3-chloro-4-(3-chloro-5-trifluoromethyl-2-pyridyloxy)-phenyl]-N'-(2,6-difluorobenzoyl)-N-methylurea]
inhibition at 100 µg/g [7]: 100%

SMILES: CN(C(=O)NC(=O)c1c(F)cccc1F)c1ccc(Oc2ccc(SC(F)(F)F)cc2)cc1 [compound 39]
mortality at 10 ppm [1]: 100%

SMILES: COc1cc(N(C)C(=O)NC(=O)c2c(F)cccc2F)ccc1Oc1ncc(C(F)(F)F)cc1Cl [compound 75]
mortality at 10 ppm [1]: 90% | mortality at 1 ppm [2]: 90%

Remaining rate in the soil [6]: 77%
SMILES: O=C(NC(=O)c1c(F)cccc1F)Nc1ccc(-c2ccc(Br)cc2)cc1 [drawing 49 (R=H), reference compound]
minimal effective concentration [3]: 0.6 µg/mL | minimal effective concentration [4]: 0.3 µg/mL | EC50 of Daphnia magna Straus (50% immobilisation concentration) [5]: < 0.8 ppb

SMILES: CN(C(=O)NC(=O)c1c(F)cccc1F)c1ccc(Oc2ccc(C(F)(F)F)cc2Cl)cc1 [Compound No. 18, N-[4-(2-chloro-4-trifluoromethylphenoxy)phenyl]-N'-(2,6-difluorobenzoyl)-N-methylurea]
mortality at 200 ppm [8]: 100%

SMILES: CN(C(=O)NC(=O)c1c(F)cccc1F)c1ccc(Oc2ncc(Cl)cc2C(F)(F)F)cc1 [compound 74]
mortality at 1 ppm [2]: 100%

SMILES: Cc1cc(N(C)C(=O)NC(=O)c2ccccc2C)ccc1Oc1ccc(C(F)(F)F)cc1Cl [compound 64]
mortality at 1 ppm [2]: 90%

SMILES: Cc1cc(N(C)C(=O)NC(=O)c2c(F)cccc2F)cc(C)c1Oc1ccc(C(F)(F)F)cc1Cl [compound 65]
mortality at 1 ppm [2]: 100%

SMILES: Cc1ccccc1C(=O)NC(=O)N(C)c1ccc(Oc2ccc(C(F)(F)F)cc2Cl)c(F)c1 [compound 63]
mortality at 1 ppm [2]: 100%

SMILES: Cc1ccccc1C(=O)NC(=O)N(C)c1cc(C)c(Oc2ccc(C(F)(F)F)cc2Cl)c(C)c1 [compound 66]
mortality at 1 ppm [2]: 100%

SMILES: Cc1cc(N(C)C(=O)NC(=O)c2c(F)cccc2F)ccc1Oc1ncc(C(F)(F)F)cc1Cl [Compound No. 76]
mortality at 10 ppm [1]: 100%

SMILES: CN(C(=O)NC(=O)c1c(F)cccc1F)c1ccc(-c2ccc(Br)cc2)cc1 [Compound No. 29, N-(4'-bromo-4-biphenylyl)-N'-(2,6difluorobenzoyl)-N-methylurea]
mortality at 1 ppm [2]: 100% | inhibition at 100 µg/g [7]: 100%

SMILES: Cc1cc(N(C)C(=O)NC(=O)c2ccccc2Cl)ccc1Oc1ncc(C(F)(F)F)cc1Cl [compound 77, N-{4-[3-chloro-5-trifluoromethyl-2-pyridyloxy]-3-methylphenyl}-N'-(2-chlorobenzoyl)-N-methylurea]
mortality at 10 ppm [1]: 100%

Remaining rate in the soil [6]: 76%
SMILES: CN(C(=O)NC(=O)c1c(F)cccc1F)c1ccc(Oc2ccc(C(F)(F)F)cc2Cl)c(F)c1 [drawing 47 (R=CH3)]
minimal effective concentration [3]: 0.04 µg/mL | minimal effective concentration [4]: 0.08 µg/mL | EC50 of Daphnia magna Straus (50% immobilisation concentration) [5]: 150 ppb

SMILES: Cc1cc(Oc2ncc(C(F)(F)F)cc2Cl)ccc1N(C)C(=O)NC(=O)c1c(F)cccc1F [compound 20, N-[4-(3-chloro-5-trifluoromethyl-2-pyridyloxy)-2-methylphenyl]-N'-(2,6-difluorobenzoyl)-N-methylurea]
inhibition at 100 µg/g [7]: 100%

SMILES: CN(C(=O)NC(=O)c1ccccc1Br)c1ccc(Oc2ncc(C(F)(F)F)cc2Cl)cc1 [Compound No. 80]
mortality at 1 ppm [2]: 100%

SMILES: CN(C(=O)NC(=O)c1c(F)cccc1F)c1ccc(-c2ccc(Cl)cc2)c(F)c1 [Compound No. 31, N-[4'-chloro-2-fluoro-4biphenylyl)-N'-(2,6-difluorobenzoyl)-N-methylurea]
inhibition at 100 µg/g [7]: 100%

SMILES: CN(C(=O)NC(=O)c1c(F)cccc1F)c1ccc(-c2ccc(C(F)(F)F)cc2)cc1 [compound 108]
mortality at 10 ppm [1]: 100% | mortality at 1 ppm [2]: 100% | mortality at 800 ppm [2]: 100%

Remaining rate in the soil [6]: 45%
SMILES: CN(C(=O)NC(=O)c1c(F)cccc1F)c1ccc(-c2ccc(Br)cc2)cc1 [drawing 49 (R=CH3)]
minimal effective concentration [3]: 0.04 µg/mL | minimal effective concentration [4]: 0.02 µg/mL | EC50 of Daphnia magna Straus (50% immobilisation concentration) [5]: 150 ppb

Remaining rate in the soil [6]: 84%
SMILES: O=C(NC(=O)c1c(F)cccc1F)Nc1ccc(Oc2ccc(C(F)(F)F)cc2Cl)cc1 [drawing 48 (R=H), reference compound]
minimal effective concentration [3]: 0.08 µg/mL | minimal effective concentration [4]: 0.08 µg/mL | EC50 of Daphnia magna Straus (50% immobilisation concentration) [5]: < 0.4 ppb

SMILES: CN(C(=O)NC(=O)c1c(F)cccc1F)c1ccc(N(C)c2ccc(C(F)(F)F)cc2Cl)cc1 [compound 126]
mortality at 10 ppm [1]: 100% | mortality at 1 ppm [2]: 100% | mortality at 800 ppm [2]: 100%

Remaining rate in the soil [6]: 49%
SMILES: CN(C(=O)NC(=O)c1c(F)cccc1F)c1ccc(Oc2ccc(C(F)(F)F)cc2Cl)cc1 [drawing 48 (R=CH3)]
minimal effective concentration [3]: 0.02 µg/mL | minimal effective concentration [4]: 0.02 µg/mL | EC50 of Daphnia magna Straus (50% immobilisation concentration) [5]: 50 ppb

SMILES: CN(C(=O)NC(=O)c1c(F)cccc1F)c1ccc(Oc2ccc(C(F)(F)F)cc2)cc1 [compound 40]
mortality at 10 ppm [1]: 90%
